The record followed here is patent US9115073B2, “1,3-diphenylpropane derivatives, preparations and uses thereof” (GENFIT, priority 2011, dated 2015).

Broadly, the EC50 is the concentration that produces a half-maximal response. One may read the melting point as the temperature, or range, at which the solid turns liquid.

SMILES strings stand for the structures. Counter-ions that a name gives are not always drawn.

One data set deals with T1, hPPARalpha (Homo sapiens, UniProt Q07869).
T1 construct: Gal4-hPPARα(LBD); Gal4 (fusion partner); expressed in transfected cells; host or cells: COS-7 (monkey kidney)
T1 sequence (Q07869 239-466 limits assumed): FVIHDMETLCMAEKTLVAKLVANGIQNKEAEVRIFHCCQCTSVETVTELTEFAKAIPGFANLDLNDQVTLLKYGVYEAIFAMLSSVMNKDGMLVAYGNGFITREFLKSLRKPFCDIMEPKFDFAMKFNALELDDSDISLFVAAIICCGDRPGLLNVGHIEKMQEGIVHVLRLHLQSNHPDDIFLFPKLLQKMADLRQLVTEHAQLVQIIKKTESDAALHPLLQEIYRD
The data set can be described thus: Gal4-hPPARalpha transactivation assay in COS-7 cells (luciferase). The format is cell-based. Particulars: for EC50: Gal4-hPPARα(LBD) transactivation. The gist of the method:
(§1)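 COS-7 cells transiently co-transfected with Gal4-hPPAR chimeras and a Gal4(RE)_TkpGL3 luciferase reporter (1/50 ratio) were seeded at 20,000 cells/well for 4 h, then treated in 2% lipid-free synthetic serum medium (0.1% DMSO). EC50 and Hill slope came from fitted luciferase curves. Emax is relative to fenofibrate 100 μM (α), rosiglitazone 10 μM (γ) or GW501516 1 μM (δ).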

The next data set concerns the target T2, hPPARgamma (Homo sapiens, UniProt P37231).
T2 construct: Gal4-hPPARγ(LBD); Gal4 (fusion partner); expressed in transfected cells; host or cells: COS-7 (monkey kidney)
T2 sequence (P37231 238-503 limits assumed): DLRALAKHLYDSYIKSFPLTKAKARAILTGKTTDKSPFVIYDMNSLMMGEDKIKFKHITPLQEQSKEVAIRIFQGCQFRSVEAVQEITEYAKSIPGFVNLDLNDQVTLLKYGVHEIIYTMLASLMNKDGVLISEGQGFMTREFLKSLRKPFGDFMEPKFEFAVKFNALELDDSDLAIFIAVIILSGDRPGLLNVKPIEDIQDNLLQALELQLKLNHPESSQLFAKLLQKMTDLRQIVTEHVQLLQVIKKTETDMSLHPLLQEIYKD
Put plainly: Gal4-hPPARgamma transactivation assay in COS-7 cells (luciferase). Particulars: for EC50: Gal4-hPPARγ(LBD) transactivation. The format is cell-based. A digest of the protocol: as §1

In a further data set the target is T3, hPPARdelta (Homo sapiens, UniProt Q03181).
T3 construct: Gal4-hPPARδ(LBD); Gal4 (fusion partner); expressed in transfected cells; host or cells: COS-7 (monkey kidney)
T3 sequence (Q03181 211-439 limits assumed): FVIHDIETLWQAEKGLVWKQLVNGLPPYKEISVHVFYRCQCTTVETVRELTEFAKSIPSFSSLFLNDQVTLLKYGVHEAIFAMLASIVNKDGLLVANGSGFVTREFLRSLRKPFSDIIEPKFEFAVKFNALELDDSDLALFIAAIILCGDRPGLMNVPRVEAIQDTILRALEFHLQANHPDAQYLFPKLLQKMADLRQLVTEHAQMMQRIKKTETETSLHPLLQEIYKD
The data set can be described thus: Gal4-hPPARdelta transactivation assay in COS-7 cells (luciferase). In kind it is cell-based. The settings on record: for EC50: Gal4-hPPARδ(LBD) transactivation. A digest of the protocol: as §1

On to `COC(c1ccc(Br)cc1)C1CC1c1cc(C)c(OC(C)(C)C(=O)O)c(C)c1` (racemic) [Cpd 1-1, 2-(4-(2-(methoxy(4-bromophenyl)methyl)cyclopropyl)-2,6-dimethylphenoxy)-2-methylpropanoic acid], for which the melting point came to 133 °C. The Emax on hPPARalpha (COS-7, maximal relative activation vs reference, read-out: Gal4-hPPARα(LBD) TOP (% ref)) was determined as 44%. Moreover, at hPPARalpha, a half-maximal effect (EC50) was put at 0.239 µM. Further, the Emax at hPPARgamma (COS-7, maximal relative activation vs reference, read-out: Gal4-hPPARγ(LBD) TOP (% ref)) was found to be 68%. At hPPARgamma, this compound came in with an EC50 of 0.044 µM. Also, the Emax on hPPARdelta (COS-7, maximal relative activation vs reference, read-out: Gal4-hPPARδ(LBD) TOP (% ref)) turned out to be 84%. This compound yielded an EC50 at hPPARdelta of 0.04 µM.

Take `COC(c1ccc(OC(F)(F)F)cc1)C1CC1c1cc(C)c(OC(C)(C)C(=O)O)c(C)c1` (single isomer, unassigned) (as salt: TFA) [Cpd 14-1-1, 2-(4-(2-(methoxy(4-(trifluoromethoxy)phenyl)methyl)cyclopropyl)-2,6-dimethylphenoxy)-2-methylpropanoic acid]: the melting point lay within 155 to 156 °C.

With `COC(c1ccc(OC(F)(F)F)cc1)C1CC1c1cc(C)c(OC(C)(C)C(=O)O)c(C)c1` (single isomer, unassigned) [Cpd 14-2, 2-(4-(2-(methoxy(4-(trifluoromethoxy)phenyl)methyl)cyclopropyl)-2,6-dimethylphenoxy)-2-methylpropanoic acid], the melting point lay in the range of 190 to 194 °C. At hPPARalpha, this compound yielded an EC50 of 0.041 µM. This compound also registered an EC50 on hPPARgamma of 0.017 µM. For the same compound, a half-maximal effect at hPPARdelta (EC50) was put at 0.03 µM.
